Measured values as given in patent US12180165B2, “Human TLR8-selective agonists” (University of Kansas, priority 2015, dated 2024).
Where a name gives a salt, the structure may show the parent alone.

How the values were obtained:
[1] = test system: TLR-2/-3/-4/-5/-7/-9 and NOD-1/NOD-2; assay: TLR-2/-3/-4/-5/-7/-9 and NOD-1/NOD-2 counter-screens (reporter gene assays); type: cell-based, human
Description: (§1) HEK293 cells stably co-transfected with the appropriate hTLR (or NOD) and secreted alkaline phosphatase (sAP) were maintained in HEK-BLUE™ Selection medium. Stable expression of secreted alkaline phosphatase (sAP) under control of NF-κB/AP-1 promoters is inducible by appropriate TLR/NOD agonists, and extracellular sAP in the supernatant is proportional to NF-κB induction. Reporter cells were incubated at a density of ˜10^5 cells/ml in a volume of 80 μl/well, in 384-well, flat-bottomed cell culture-treated microtiter plates in the presence of graded concentrations of stimuli. sAP was assayed spectrophotometrically using an alkaline phosphatase-specific chromogen (present in HEK-detection medium as supplied by InvivoGen) at 620 nm.

[2] = biological target: T1, human TLR8 (Homo sapiens, UniProt Q9NR97); assay: Human TLR8-specific reporter gene assay (NF-κB induction, sAP readout in HEK293 cells); type: cell-based; settings: EC50 in human TLR8-specific reporter gene assay
T1 construct: expressed in transfected cells; host or cells: HEK293
T1 sequence (Q9NR97 27-1041): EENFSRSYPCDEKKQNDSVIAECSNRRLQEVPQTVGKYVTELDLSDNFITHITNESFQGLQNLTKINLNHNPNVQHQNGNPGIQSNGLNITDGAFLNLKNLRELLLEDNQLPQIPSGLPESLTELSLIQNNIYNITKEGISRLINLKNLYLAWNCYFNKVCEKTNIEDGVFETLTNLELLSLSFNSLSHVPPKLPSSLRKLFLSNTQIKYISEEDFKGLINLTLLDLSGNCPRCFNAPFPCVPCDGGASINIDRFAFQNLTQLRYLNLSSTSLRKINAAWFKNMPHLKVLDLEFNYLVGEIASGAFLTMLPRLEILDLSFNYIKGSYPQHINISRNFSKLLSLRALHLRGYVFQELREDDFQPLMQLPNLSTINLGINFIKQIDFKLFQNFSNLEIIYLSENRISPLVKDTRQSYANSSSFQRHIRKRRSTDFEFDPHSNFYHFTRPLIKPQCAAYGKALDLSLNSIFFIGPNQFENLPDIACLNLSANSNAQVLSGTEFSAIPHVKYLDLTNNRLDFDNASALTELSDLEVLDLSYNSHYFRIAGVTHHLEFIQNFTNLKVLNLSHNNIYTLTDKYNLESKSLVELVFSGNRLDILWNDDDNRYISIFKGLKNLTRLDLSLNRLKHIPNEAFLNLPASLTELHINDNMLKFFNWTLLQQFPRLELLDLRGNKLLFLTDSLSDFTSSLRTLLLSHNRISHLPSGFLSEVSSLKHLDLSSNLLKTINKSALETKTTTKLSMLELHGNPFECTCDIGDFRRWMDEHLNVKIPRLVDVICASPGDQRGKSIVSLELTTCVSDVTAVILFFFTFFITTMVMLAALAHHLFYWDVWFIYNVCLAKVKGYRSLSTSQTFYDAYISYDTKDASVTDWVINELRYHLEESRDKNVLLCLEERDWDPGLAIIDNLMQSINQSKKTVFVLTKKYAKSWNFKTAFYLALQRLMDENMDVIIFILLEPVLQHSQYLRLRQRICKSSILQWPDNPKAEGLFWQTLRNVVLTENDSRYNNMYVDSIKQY
Description: as §1

[3] = test system: CD14+ monocytes; assay: Eight-color flow cytometry of activation markers in human whole blood; type: cell-based; settings: FIG. 5
Description: Eight-color Flow-cytometric immunostimulation experiments: Cell surface marker upregulation was determined by flow cytometry using protocols as described previously (Hood, J. D. et al. Hum. Vaccin. 2010, 6, 332-335), and modified for rapid-throughput. […] Serial dilutions of selected compounds were performed using a Bio-Tek Precision 2000 XS liquid handler in sterile 96-well polypropylene plates, to which were added 100 mL aliquots of anticoagulated whole human blood. The plates were incubated at 37° C. for 16 h. Negative (endotoxin free water) controls were included in each experiment. The following fluorochrome-conjugated antibodies were used: CD3-PE, CD19-FITC, CD56-APC (eBioscience, San Diego, CA), CD14-V500, CD28 PE-Cy7, CD40 V450, CD80 APC-H7, CD86 PerCP-Cy5.5 (Becton-Dickinson Biosciences, San Jose, CA). Following incubation, 2.5 μg of each antibody was added to wells with a liquid handler, and incubated at 4° C. in the dark for 60 min. […] CD28, CD40, CD80, and CD86 activation in the major leukocyte populations, viz., natural killer lymphocytes (NK cells: CD3-CD56+), cytokine-induced killer phenotype (CIK cells: CD3+CD56+), B lymphocytes (CD19+CD3-), T lymphocytes (CD3+CD56-), monocytes (CD14+), polymorphonuclear cells (CD14-) were quantified using FlowJo v 7.0 software (Treestar, Ashland, OR).

[4] = test system: human PBMCs; assay: Cytokine/chemokine induction in human peripheral blood mononuclear cells (multiplexed bead array); type: cell-based; settings: human PBMCs as well as whole human blood, FIG. 3
Source text: Immunoassays for cytokines.

[5] = biological target: T1, human TLR8; settings: reference compounds, literature values (Kokatla et al.); read-out: TLR8 EC50 (previously reported); cited from earlier work

Compound: CCCCCc1c(N)nc2ccccc2c1Cc1ccc(CN)cc1 [Compound 9b, 4-(4-(Aminomethyl)benzyl)-3-pentylquinolin-2-amine dihydrochloride]
- specificity for TLR8 [1]: retained specificity for TLR8

Compound: CCCCCc1cc2c(Cc3ccccc3)cccc2nc1N [Compound 17d, 5-Benzyl-3-pentylquinolin-2-amine]
- TLR8 Agonistic Activity (nM) [2]: Inactive

Compound: CCCCCc1c(N)nc2ccccc2c1Cc1cccc(CN)c1 [Compound 9a, 4-(3-(Aminomethyl)benzyl)-3-pentylquinolin-2-amine dihydrochloride]
- specificity for TLR8 [1]: retained specificity for TLR8

Compound: CCCCCc1cc2cccc(CCCCN)c2nc1N [Compound 37, 8-(4-Aminobutyl)-3-pentylquinolin-2-amine]
- TLR8 Agonistic Activity (nM) [2]: Inactive

Compound: CCCCCc1cc2c(CCCCCN)cccc2nc1N [Compound 34b, 5-(5-Aminopentyl)-3-pentylquinolin-2-amine]
- CD40 upregulation [3]: upregulate CD40
- CD80 expression [3]: strongly induces CD80 expression
- induction of proinflammatory cytokines including TNF-α, IL-12 and IFN-γ [4]: induction of a specific set of proinflammatory cytokines was observed

Compound: CCCCCc1cc2c(-c3cccc(CN)c3)cccc2nc1N [Compound 20a, 5-(3-(Aminomethyl)phenyl)-3-pentylquinolin-2-amine]
- TLR8 Agonistic Activity (nM) [2]: Inactive

Compound: C2-butyl furo[2,3-c]quinoline
- EC50 [5]: 1600 nM

Compound: CCCCCc1cc2c(Cc3cccc(C(N)=O)c3)cccc2nc1N [Compound 18d, 3-((2-Amino-3-pentylquinolin-5-yl)methyl)benzamide]
- TLR8 Agonistic Activity (nM) [2]: Inactive
